Results taken from US5264420A, “Fibrinogen receptor antagonists” (Merck & Co., Inc., priority 1992, dated 1993).

Test system: blood platelets
Test: Inhibition of platelet aggregation
Format: cell-based

Row | Compound | IC50 [µM]
1 | O=C(O)CC(CCc1c[nH]cn1)NC(=O)CNC(=O)CCCC1CCNCC1 (stereo not drawn) [(11), Pib-Gly-3-[2-(imidazol-4-yl)ethyl]β-alanine] | 2.7
2 | CC(C)N(C(=O)CCCC1CCNCC1)[C@H](CCc1ccccc1)CC(=O)O [(3), Pib-N-(i-Propyl)-3(R)-(2-phenethyl)-β-alanine] | 0.099
3 | CC(CCc1ccccc1)(CC(=O)O)NC(=O)CNC(=O)CCCC1CCNCC1 (centres unmarked) [(7)] | > 300
4 | CCCCN(CC(=O)N[C@H](CCc1ccccc1)CC(=O)O)C(=O)CCCC1CCNCC1 [(2), Pib-N-(n-butyl)Gly-3(R)-(2-phenethyl)-β-alanine] | 0.077
5 | Pib-Gly-3-(3-carboxypropyl)β-alanine [(13)] | 4
6 | O=C(O)C[C@@H](CCc1ccccc1)NC(=O)CN(CCc1ccccc1)C(=O)CCCC1CCNCC1 [(4), Pib-N-(2-phenethyl)Gly-3(R)-(2-phenethyl)-β-alanine] | 0.087
7 | O=C(O)CC(CCc1cncn1Cc1ccccc1)NC(=O)CNC(=O)CCCC1CCNCC1 (stereo not drawn) [(12), Pib-Gly-3-[2-(3-benzylimidazol-4-yl)ethyl]β-alanine] | 1.5
8 | Cc1[nH]c2ccccc2c1CCC(CC(=O)O)NC(=O)CNC(=O)CCCC1CCNCC1 (stereo not drawn) [(14), Pib-Gly-3-[2-(2-methylindol-3-yl)ethyl]β-alanine] | 1.1
9 | O=C(O)C[C@@H](CCc1ccccc1)NC(=O)CN(Cc1ccccc1)C(=O)CCCC1CCNCC1 [(1), Pib-N-(benzyl)Gly-3(R)-(2-phenethyl)-β-alanine] | 0.25
10 | O=C(O)CC(CCO)NC(=O)CNC(=O)CCCC1CCNCC1 (stereo not drawn) [(8), Pib-Gly-3-[2-(hydroxy)ethyl]β-alanine] | > 1
11 | O=C(O)CC(COc1ccccc1)NC(=O)CNC(=O)CCCC1CCNCC1 (stereo not drawn) [(10), Pib-Gly-3-(phenoxymethyl)β-alanine] | 2.1
12 | CCOC(=O)C[C@H](CCc1c[nH]c2ccccc12)NC(=O)CNC(=O)CCCC1CCNCC1 [(5), Pib-Gly-3(S)-[2-(indol-3-yl)ethyl]-β-alanine ethyl ester] | > 1
13 | O=C(O)CC(CCCCO)NC(=O)CNC(=O)CCCC1CCNCC1 (stereo not drawn) [(9), Pib-Gly-3-[4-(hydroxy)butyl],β-alanine] | 3.7
14 | O=C(O)C[C@H](CCc1c[nH]c2ccccc12)NC(=O)CNC(=O)CCCC1CCNCC1 [(6), Pib-Gly-3(S)-[2-(indol-3-yl)ethyl]β-alanine] | 31
